According to patent US20100292316A1, “IMPROVED THERAPEUTIC METHODS AND COMPOSITIONS COMPRISING CHROMAN RING COMPOUNDS” (Research Development Foundation, priority 2007, published 2010):

Tested on: MDA-MB-435 human breast cancer cells
Experiment: DNA microarray gene expression after α-TEA treatment
Type: cell-based
Parameters: scale not given here
Settings: MDA-MB-435, 40 μM, 12 h
Experimental: In order to identify genes that are involved in α-TEA induced apoptosis in cancer cells the gene expression levels in MDA-MB-435 human breast cancer cells were analyzed after treatment with α-TEA. The MDA-MB-435 cell line is an estrogen-receptor negative/estrogen-nonresponsive epithelial cell line isolated from the pleural effusions of a human with breast cancer (Price et al., 1990). DNA microarray data obtained from treatment of MDA-MB-435 cells with 40 μM α-TEA for 12 h identified approximately 400 genes that gave consistent responses to α-TEA treatment. Genes that passed a minimum quality control threshold were analyzed using online software (The Database for Annotation, Visualization and Integrated Discovery (DAVID)).
MDA-MB-435 cells were cultured in MEM with Earle's balanced salts (Life Technologies, Inc., Grand Island, N.Y.) supplemented with 5% FBS (Hyclone Laboratories, Logan, Utah) plus 2 mM glutamine, 100 μg/ml streptomycin, 100 IU/ml penicillin, 1×(v/v) nonessential amino acids, 2×(v/v) MEM vitamins, and 1 mM sodium pyruvate (Sigma).
Messenger RNA was isolated from the treated MDA-MB-435 cells (3×150 mm dishes) using the FastTrack 2.0 kit (Invitrogen) according to the manufacturer's instructions. First, 15 ml of lysis buffer was added into the cell pellets and mixed thoroughly. The cell lysates were incubated in 45° C. for 45 min with intermittent inversion. Then, 950 μl of 5 M NaCl stock solution was added and mixed thoroughly. Any remaining DNA was sheared by passing the lysates 3 times through a sterile plastic syringe fitted with a 21 gauge needle. Next, the calculated amount of oligo-dT cellulose was added to each sample and allowed to swell for 2 minutes. The tube was rocked gently in a horizontal position for 60-90 minutes at room temperature. The oligo-dT slurry was centrifuged at 4000 rpm for 5 minutes at room temperature, the supernatant was carefully removed from the resin bed. The oligo-dT cellulose was then resuspended in 20 ml of Binding Buffer by vortexing and centrifuged at 4000 rpm for 5 minutes at room temperature, the binding buffer was removed from the resin bed; this step was repeated with 10 ml of binding buffer. The oligo-dT cellulose was washed three times in 10 ml of Low Salt Wash Buffer and centrifuged. The resulting oligo-dT cellulose was resuspended in 800 μl of Low Salt Wash Buffer using a 1 ml pipette tip with a cut-end and quickly transferred to a spin column seated in a microcentrifuge tube. The column was centrifuged at 1000 rcf (about 3000 rpm on a typical microcentrifuge) for 10 seconds at room temperature and the flow-through liquid was discarded. The transfer and centrifugation steps were repeated until all of the oligo-dT cellulose was in the spin column. Then, the spin column containing the oligo-dT cellulose was placed into a clean microcentrifuge tube. The oligo-dT cellulose was resuspended in 200 μl of preheated Elution Buffer (65° C.) using a 200 μl cut-end pipette tip to gently swirl the cellulose, without puncturing the underlying spin column membrane. The column was allowed to stand for 2 minutes at room temperature and then centrifuged at 1000 rcf for 30 seconds at room temperature. This step was repeated with 200 μl of heated Elution Buffer. Then, 40 μl of 3 M sodium acetate and 1 ml of 95% ethanol were added into the combined 400 μl eluent which contained the mRNA and mixed thoroughly. The mRNA mixture was stored at −80° C. overnight. Thenext day, the mixture was thawed and centrifuged at 14,000 rpm in a microcentrifuge for 15 minutes at 4° C., the ethanol was then carefully removed from the mRNA pellet. The mRNA was washed with 70% ethanol once more and resuspended in 20 μl of Elution Buffer (heated as before). […]

Compound: Cc1c(C)c2c(c(C)c1OCC(=O)O)CC[C@@](C)(CCC[C@H](C)CCC[C@H](C)CCCC(C)C)O2 [α-TEA]
- Average level (Clone IMAGE: 5311129, mRNA, AI362218): −0.8568
- Average level (EST, AI201652): −0.7242
- Average level (Homo sapiens transcribed sequence with strong similarity to protein pdb: 1BGM, AA779865): −0.735
- Average level (Homo sapiens transcribed sequences, R55747): −0.756
- Average level (MRNA full length insert cDNA clone EUROIMAGE 200999, N54993): −0.698
- Average level (Transcribed sequences, H99855): −0.8377
- Average level (gene AGPAT3, R61733): −0.743
- Average level (gene AGTRAP, AA152101): −0.574
- Average level (gene AKR1C2, AI924357): −0.865
- Average level (gene AMD1, R82299): −0.758
- Average level (gene ATOX1, AA418755): −0.898
- Average level (gene ATP5G1, AA046701): −0.6558
- Average level (gene BAT3, AA598629): −0.5502
- Average level (gene BST2, AA485371): −0.5935
- Average level (gene C7orf38, AA452899): −0.6558
- Average level (gene C9orf58, H48148): −0.5662
- Average level (gene C13orf8, AA463267): −0.6892
- Average level (gene C14orf24, AA035549): −0.6602
- Average level (gene C16orf34, AA045658): −0.7252
- Average level (gene CDCA2, AI248208): −0.719
- Average level (gene CHD9, R81880): −0.6642
- Average level (gene CLCN3, H69811): −0.6208
- Average level (gene COX7B, AA629999): −0.8798
- Average level (gene CRABP1, AA421218): −0.7923
- Average level (gene CRTAP, AA490280): −0.7943
- Average level (gene CTNNB1, AW058504): −0.59
- Average level (gene CUGBP2, AA047257): −0.8218
- Average level (gene CXXC5, R63735): −0.8002
- Average level (gene D4ST1, AA922082): −0.6567
- Average level (gene DAG1, AA496691): −0.8377
- Average level (gene DCT, N27147): −0.8518
- Average level (gene DEPDC6, AA621364): −0.93
- Average level (gene DHCR24, AA482324): −0.8912
- Average level (gene DPY19L2, AA134696): −0.7558
- Average level (gene EPHB2, W72792): −0.6663
- Average level (gene ERBB3, AA664212): −0.864
- Average level (gene ETFB, AI364521): −0.6326
- Average level (gene FAM83D, R96941): −0.5566
- Average level (gene FBXL13, AA676859): −0.8802
- Average level (gene FLJ12973, AI220472): −0.7147
- Average level (gene FLJ21901, AI392678): −0.8782
- Average level (gene FZD4, AA677200): −0.765
- Average level (gene GFER, AA465021): −0.5873
- Average level (gene GGH, AA455800): −0.8048
- Average level (gene GNG2, N26108): −0.9006
- Average level (gene HBS1L, AI003293): −0.6832
- Average level (gene HNRPM, AA504272): −0.6512
- Average level (gene HSBP1, AA481263): −0.735
- Average level (gene IFT122, R97234): −0.585
- Average level (gene ITGB8, AI246160): −0.7288
- Average level (gene KIAA0664, AI363909): −0.8538
- Average level (gene LGALS13, AA706870): −0.8452
- Average level (gene LOC151162, H79970): −0.6815
- Average level (gene LOC286334, AA425105): −0.8562
- Average level (gene LRRK2, AA283609): −0.8566
- Average level (gene LTBP3, R60197): −0.6094
- Average level (gene MAF1, AA598994): −0.8305
- Average level (gene MAN1A2, R22905): −0.8387
- Average level (gene MGA, AA011551): −0.74
- Average level (gene MGC4692, AA455039): −0.7943
- Average level (gene MLANA, N26562): −0.551
- Average level (gene MVK, R06716): −0.673
- Average level (gene MYEF2, H96671): −0.6864
- Average level (gene MYO5A, H20809): −0.6754
- Average level (gene NETO2, AA456821): −0.6854
- Average level (gene NOV, AW008840): −0.7034
- Average level (gene NQO1, AA455538): −0.8166
- Average level (gene NUPL1, AA158352): −0.8132
- Average level (gene NUPL2, R96358): −0.7312
- Average level (gene NUSAP1, AA620485): −0.617
- Average level (gene OVOS2, AA600184): −0.9275
- Average level (gene PCDHB16, AI218958): −0.7648
- Average level (gene PFKFB2, R16146): −0.6214
- Average level (gene PLEKHF2, AA886792): −0.8846
- Average level (gene SCD, R00707): −0.8732
- Average level (gene SFRS2, AA454585): −0.7076
- Average level (gene SGCD, AA479286): −0.8855
- Average level (gene SLC26A2, AA704222): −0.9114
- Average level (gene SLC44A1, R59173): −0.6684
- Average level (gene SLC44A1, T61913): −0.6626
- Average level (gene SNX12, AA629796): −0.611
- Average level (gene SOS1, H64324): −0.6138
- Average level (gene STARD7, R37351): −0.7862
- Average level (gene TBC1D1, R32437): −0.8948
- Average level (gene TBC1D16, AI431804): −0.9208
- Average level (gene TMPO, H21943): −0.7848
- Average level (gene TMPO, T63980): −0.7846
- Average level (gene TNFRSF21, AA490494): −0.8622
- Average level (gene TNS3, T74023): −0.8212
- Average level (gene TOP2A, AA504348): −0.7142
- Average level (gene TREX1, AA279658): −0.861
- Average level (gene TRIM2, AA464935): −0.922
- Average level (gene TSHZ1, AA426522): −0.865
- Average level (gene TWSG1, N91767): −0.6
- Average level (gene USP40, H29211): −0.8932
- Average level (gene VAV3, H10045): −0.9075
- Average level (gene VPRBP, AA644335): −0.702
- Average level (gene VPS13D, AI005042): −0.7177
- Average level (gene WASPIP, AA283699): −0.8604
- Average level (gene ZNF291, AA001504): −0.6362
